Reference: US9274101B2 (BIOLOG, Inc., priority 2001, dated 2016)

Assays:
HL-60 cells = test: HL-60 responses to selected compounds at a range of concentrations; format: cell-based, human; conditions: for activity at 30 µM / activity at 100 µM / activity at 330 µM / activity at 1000 µM / activity at 3300 µM / activity at 10000 µM / activity at 15000 µM / activity at 20000 µM: Homo sapiens, HL-60, read-out: HL-60 Cell Responses to Selected Compounds from PM1 and PM2
Procedure: In this Example, methods for testing unattached cells for their ability to use various concentrations of selected carbon sources are described. The carbon sources used in this Example were identified by the methods disclosed in Example 27. Similarly, HL-60 cells were cultured as described in Example 27.
After washing, HL-60 cells were resuspended in DME-R. An aliquot of the cell suspension was counted by trypan blue exclusion and the cell density was adjusted to 6.67×10^5/mL. Fifty μL of DME-R were added to each well of the appropriate number of half area, 96-well plates, followed by 23 μL of the appropriate dilution of each test energy source. Stocks of 133 mM of each test chemical were prepared in tissue culture grade water, sterile filtered, and dilutions were prepared in a master plate so that, upon dilution in a total volume of 150 μL, the final concentrations would be 0.033 to 20 mM. Negative control wells received 23 μL of tissue culture grade water. The cells were plated at a volume of 75 μL/well, giving a final cell density of 5×10^4/well. For each plate containing energy sources and cells, a second, control plate containing only energy sources was prepared. Plates were incubated at 5% CO2, 90-100% humidity, and 37° C. for 24 hours prior to addition of the MTS/MPMS colorometric reagent (7.5 μL/well). The color formed in each well after an additional 24 hour incubation period, was measured on a plate reader at 490 nm with a reference wavelength of 650 nm. OD values from the control plate were subtracted from the OD values obtained with cells prior to normalizing the data to % negative control (cells without added energy source).

[1] = system: DMSO-differentiated HL-60 cells; test: Energy use by DMSO-differentiated HL-60 cells; format: cell-based, human; conditions: for activity at 30 µM / activity at 100 µM / activity at 330 µM / activity at 1000 µM / activity at 3300 µM / activity at 10000 µM / activity at 15000 µM / activity at 20000 µM: Homo sapiens, HL-60, 24 h, read-out: Energy Use by DMSO-Differentiated HL-60 Cells
Procedure: In this Example, methods for testing in vitro-differentiated cells for their ability to use multiple energy sources are described. Prior to differentiation, HL-60 cells were cultured as described in Example 27. DMSO-induced differentiation (Odani et al., Res. Commun. Mol. Pathol. Pharmacol. 108:381-391 [2000]; and Yamaguchi et al., Biol. Pharm. Bull. 20:943-947 [1997]) was accomplished by incubation of the cells in the presence of 1.25% DMSO for 3 days.
After washing, HL-60 cells were resuspended in DME-R. An aliquot of the cell suspension was counted by trypan blue exclusion and the cell density was adjusted to 6.67×10^5/mL. Fifty μL of DME-R were added to each well of the appropriate number of half area, 96-well plates, followed by 25 μL of the appropriate dilution of each test energy source. Stocks of 133 mM of each test chemical were prepared in tissue culture grade water, sterile filtered, and dilutions were prepared in a master plate so that, upon dilution into a half-area 96-well microtiter plate to a total well volume of 150 μL, the final concentrations would be 0.033 to 20 mM. Negative control wells received 25 μL of tissue culture grade water. The cells were plated at a volume of 75 μL/well, giving a final cell density of 5×10^4/well. For each plate containing energy sources and cells, a second, control plate containing only energy sources was prepared with the same total volume of liquid (148 μL/well). Plates were incubated at 5% CO2, 90-100% humidity, and 37° C. for 24 hours prior to addition of the MTS/MPMS calorimetric reagent (7.5 μL/well). The color formed in each well 24 hours after addition of the colorimetric reagent, was measured with a plate reader at 490 nm with a reference wavelength of 650 nm. OD values from the control plate were subtracted from the OD values obtained with cells prior to normalizing the data to % negative control (cells without added energy source).

With `O=C1O[C@@H]([C@H](O)CO)[C@H](O)[C@H]1O` [D-gal acid g-lactone] the “HL-60 Cell Responses to Selected Compounds from PM1 and PM2” value (HL-60 cells; Conc. 0.03 mM) was 128.3 % of negative control, the “HL-60 Cell Responses to Selected Compounds from PM1 and PM2” value (HL-60 cells; Conc. 0.10 mM) was 128.7 % of negative control and the “HL-60 Cell Responses to Selected Compounds from PM1 and PM2” value (HL-60 cells; Conc. 0.33 mM) was 129.3 % of negative control. The “HL-60 Cell Responses to Selected Compounds from PM1 and PM2” value (HL-60 cells; Conc. 1.00 mM) was 141.4 % of negative control, the “HL-60 Cell Responses to Selected Compounds from PM1 and PM2” value (HL-60 cells; Conc. 3.3 mM) was 142.2 % of negative control and the “HL-60 Cell Responses to Selected Compounds from PM1 and PM2” value (HL-60 cells; Conc. 10 mM) was 127.1 % of negative control. The “HL-60 Cell Responses to Selected Compounds from PM1 and PM2” value (HL-60 cells; Conc. 15 mM) was 122.2 % of negative control, the “HL-60 Cell Responses to Selected Compounds from PM1 and PM2” value (HL-60 cells; Conc. 20 mM) was 93.9 % of negative control and the “Energy Use by DMSO-Differentiated HL-60 Cells” value ([1]; Conc. 0.03 mM) was 111.9 % of negative control. For the same compound, the “Energy Use by DMSO-Differentiated HL-60 Cells” value ([1]; Conc. 0.10 mM) was 122.9 % of negative control, the “Energy Use by DMSO-Differentiated HL-60 Cells” value ([1]; Conc. 0.33 mM) was 133.3 % of negative control and the “Energy Use by DMSO-Differentiated HL-60 Cells” value ([1]; Conc. 1.00 mM) was 157.1 % of negative control. For the same compound, the “Energy Use by DMSO-Differentiated HL-60 Cells” value ([1]; Conc. 3.3 mM) was 185.9 % of negative control, the “Energy Use by DMSO-Differentiated HL-60 Cells” value ([1]; Conc. 10 mM) was 166.9 % of negative control and the “Energy Use by DMSO-Differentiated HL-60 Cells” value ([1]; Conc. 15 mM) was 130.4 % of negative control. The “Energy Use by DMSO-Differentiated HL-60 Cells” value ([1]; Conc. 20 mM) was 99.2 % of negative control.

Compound `O=C[C@H](O)[C@@H](O)[C@@H](O)[C@H](O)C(=O)O` [D-galacturonic acid] has an activity at 30 µM (HL-60 cells; Conc. 0.03 mM) of 124%, an activity at 100 µM (HL-60 cells; Conc. 0.10 mM) of 125% and an activity at 330 µM (HL-60 cells; Conc. 0.33 mM) of 126%. For the same compound, the activity at 1000 µM (HL-60 cells; Conc. 1.00 mM) was 138%, the activity at 3300 µM (HL-60 cells; Conc. 3.3 mM) was 140% and the activity at 10000 µM (HL-60 cells; Conc. 10 mM) was 122%. For the same compound, the activity at 15000 µM (HL-60 cells; Conc. 15 mM) was 101%, the activity at 20000 µM (HL-60 cells; Conc. 20 mM) was 25% and the activity at 30 µM ([1]; Conc. 0.03 mM) was 118%. The activity at 100 µM ([1]; Conc. 0.10 mM) was 123%, the activity at 330 µM ([1]; Conc. 0.33 mM) was 138% and the activity at 1000 µM ([1]; Conc. 1.00 mM) was 157%. It also gave an activity at 3300 µM ([1]; Conc. 3.3 mM) of 168%, an activity at 10000 µM ([1]; Conc. 10 mM) of 173% and an activity at 15000 µM ([1]; Conc. 15 mM) of 126%. The activity at 20000 µM ([1]; Conc. 20 mM) was 101%.

With `NC(=O)C[C@H](N)C(=O)O` [L-asparagine] the response in words (HL-60 cells; 0.033 to 20 mM) was “strongly utilized, even at very low concentrations”, the activity at 30 µM (HL-60 cells; Conc. 0.03 mM) was 134% and the activity at 100 µM (HL-60 cells; Conc. 0.10 mM) was 149%. It also gave an activity at 330 µM (HL-60 cells; Conc. 0.33 mM) of 138%, an activity at 1000 µM (HL-60 cells; Conc. 1.00 mM) of 149% and an activity at 3300 µM (HL-60 cells; Conc. 3.3 mM) of 135%. It also gave an activity at 10000 µM (HL-60 cells; Conc. 10 mM) of 137%, an activity at 15000 µM (HL-60 cells; Conc. 15 mM) of 128% and an activity at 20000 µM (HL-60 cells; Conc. 20 mM) of 118%. It also gave an activity at 30 µM ([1]; Conc. 0.03 mM) of 106%, an activity at 100 µM ([1]; Conc. 0.10 mM) of 112% and an activity at 330 µM ([1]; Conc. 0.33 mM) of 122%. The activity at 1000 µM ([1]; Conc. 1.00 mM) was 143%, the activity at 3300 µM ([1]; Conc. 3.3 mM) was 153% and the activity at 10000 µM ([1]; Conc. 10 mM) was 167%. It also gave an activity at 15000 µM ([1]; Conc. 15 mM) of 152% and an activity at 20000 µM ([1]; Conc. 20 mM) of 134%.

For `O=C1O[C@H]([C@@H](O)CO)[C@@H](O)[C@@H]1O` [L-gal acid g-lactone], the “HL-60 Cell Responses to Selected Compounds from PM1 and PM2” value (HL-60 cells; Conc. 0.03 mM) was 129.3 % of negative control, the “HL-60 Cell Responses to Selected Compounds from PM1 and PM2” value (HL-60 cells; Conc. 0.10 mM) was 132.3 % of negative control and the “HL-60 Cell Responses to Selected Compounds from PM1 and PM2” value (HL-60 cells; Conc. 0.33 mM) was 132.4 % of negative control. For the same compound, the “HL-60 Cell Responses to Selected Compounds from PM1 and PM2” value (HL-60 cells; Conc. 1.00 mM) was 145.0 % of negative control, the “HL-60 Cell Responses to Selected Compounds from PM1 and PM2” value (HL-60 cells; Conc. 3.3 mM) was 141.5 % of negative control and the “HL-60 Cell Responses to Selected Compounds from PM1 and PM2” value (HL-60 cells; Conc. 10 mM) was 122.8 % of negative control. For the same compound, the “HL-60 Cell Responses to Selected Compounds from PM1 and PM2” value (HL-60 cells; Conc. 15 mM) was 125.0 % of negative control, the “HL-60 Cell Responses to Selected Compounds from PM1 and PM2” value (HL-60 cells; Conc. 20 mM) was 100.4 % of negative control and the “Energy Use by DMSO-Differentiated HL-60 Cells” value ([1]; Conc. 0.03 mM) was 113.9 % of negative control. The “Energy Use by DMSO-Differentiated HL-60 Cells” value ([1]; Conc. 0.10 mM) was 129.2 % of negative control, the “Energy Use by DMSO-Differentiated HL-60 Cells” value ([1]; Conc. 0.33 mM) was 137.5 % of negative control and the “Energy Use by DMSO-Differentiated HL-60 Cells” value ([1]; Conc. 1.00 mM) was 155.4 % of negative control. The “Energy Use by DMSO-Differentiated HL-60 Cells” value ([1]; Conc. 3.3 mM) was 178.2 % of negative control, the “Energy Use by DMSO-Differentiated HL-60 Cells” value ([1]; Conc. 10 mM) was 171.1 % of negative control and the “Energy Use by DMSO-Differentiated HL-60 Cells” value ([1]; Conc. 15 mM) was 131.1 % of negative control. For the same compound, the “Energy Use by DMSO-Differentiated HL-60 Cells” value ([1]; Conc. 20 mM) was 98.1 % of negative control.
